The values below come from paper PMC12323867 (RSC Medicinal Chemistry, 2025).

SMILES strings stand for the structures. Values joined by “and” are separate entries in the source; they are usually repeats but may differ in a detail not shown here. Equal values may be shown once. Read-outs that look alike come from different tables or passages of the source.

For one series, the system named is HCT116 cells. Description: CTG cell viability assay. It is filed as cell-based, human. The conditions noted are these: HCT116, CellTiter-Glo, 0.0041-10 uM, 24-48 h (Fig. S3). The method, then: 2.4. CTG cell viability assays
HCT116 cells were seeded onto 96-well plates at a density of 2000 cells/well and allowed 24 h to settle. Cells were then treated with LSD1 inhibitors (0.0041-10 uM) alongside WT, DMSO and cell free control wells for 24-48 h. After this time, plates were equilibrated to RT for 30 mins, then CellTiter-Glo (Promega, G9242) reagent (5 uL/100 uL media) was added. Cells were lysed on an orbital shaker for 10 mins, then incubated at RT for 2 mins to allow luminescence to stabilise, following which luminescence was recorded on a HiDEX Sense microplate reader. To obtained plotted values, luminescence of each tested well was divided by that of the DMSO control, which were plotted against concentration using GraphPad Prism. […] was applied to obtain apparent IC50 values where possible.
Figure S3. Cell viability dose response curves
(1 picture or pasted object on this page, not shown here)

Series [1] has as its target T1, LSD1-HDAC1-CoREST complex (Homo sapiens, UniProt O60341).
T1 construct: full length native LSD1 (UniProt ID: O60341); made in house; host or cells: HEK 293F cells (co-transfection, pcDNA3 vectors)
Kind of series: LSD1 HRP-coupled demethylase assay, SP2509/SP2577 analogues. It is filed as biochemical. The method, then: The analogues synthesised were then tested for their ability to inhibit LSD1 using purified LSD1-HDAC1-CoREST complex (Fig. 2B). We used an established fluorescent read out horseradish peroxidase (HRP) assay to monitor LSD1 enzymatic activity in the CoREST complex[8] (see ESI ^† for full details).
2. Supplementary Information: Biology
2.1. LSD-HDAC1-CoREST expression and purification
Lysis Buffer (Buffer A) Wash Buffer (Buffer B)
• 50 mM Tris/Cl pH 7.5 • 50 mM Tris/Cl pH 7.5
• 50 mM Potassium Acetate • 50 mM Potassium Acetate […]
Cleavage Buffer (Buffer C) Gel Filtration Buffer (Buffer D)
• 50 mM Tris/Cl pH 7.5 Filtered at vacuum.
• 50 mM Potassium Acetate • 50 mM Tris/Cl pH 7.5
• 5 % v/v Glycerol • 50 mM Potassium Acetate
• 0.5 mM tris(2- • 0.5 mM TCEP carboxyethyl)phosphine (TCEP)
The CoREST ternary complex was comprised of full length native LSD1 (UniProt ID: O60341), full length HDAC1 (UniProt ID: Q13547) and N-terminally truncated RCOR1 (86-485aa) (UniProt ID:
Q9UKL0). Protein constructs were cloned into pcDNA3 vector. The RCOR1 constructs contained an N-terminal (His)10(Flag)3 tag followed by a Tev protease cleavage site. The constructs for ternary complex were co-transfected into suspension-grow HEK 293F cells (Thermofisher Scientific) with polyethylenimine (PEI) (Sigma) and harvested after 48 hours. This section of the procedure was carried out as described previously in literature.11,12
Cell pellets from 1.2 L culture were defrosted, and buffer A (30 mL) was added. The solution was sonicated (Soniprep 150) in an beaker of ice using a 9 mm probe at 10 ampules; operated with 10 […]
2.2. SP2509/SP2577 analogues LSD1 HRP-coupled demethylase assay protocol The commercial reagents for the assay were HRP and Amplex® Ultrared, which are available to purchase from ThermoFisher (31490) and Invitrogen (10737474), respectively. HRP was made up to 8 mg/mL stock solution in 1xPBS buffer, divided into 10 µL aliquots, snap-frozen in liquid nitrogen and stored at -80 °C. Amplex® Ultrared was made up to 10 mM solution in DMSO, divided into 20 µL aliquots and wrapped in foil, away from light and stored at -20 °C. For each assay experiment, CoREST complex was diluted to 500 nM in assay buffer (20 mM HEPES pH 7.5 and 50 mM NaCl).
HRP was defrosted by diluting each aliquot in 90 µL 1xPBS solution, making a 0.8 mg/mL solution.
Amplex® Ultrared was made up to 200 µM in assay buffer. HRP and Amplex® Ultrared were pre-mixed before addition to the plate. H3K4Me2 substrate (4 mM in deionised water) was diluted to 300 µM in assay buffer. All stocks were stored on ice during assay preparation.
The assay was carried out using a ‘black well’ 96 well plate (Corning no. 3915) in a reaction volume of 100 μL. The final concentrations in the assay were as follows: 50 nM CoREST complex, 10 μM Amplex® UltraRed, 0.04 mg/mL HRP and 15 μM H3K4Me2 peptide substrate. The final DMSO concentration in each well was 1.1 %. Three wells of each experiments were designated ‘background controls’ and contained 85 μL assay buffer, premixed Amplex® UltraRed and HRP (10 µL) and H3K4Me peptide substrate (300 μM, 5 µL).
A stock solution of inhibitor (1 -5 mM in DMSO) was subjected to an inhibitor dilution series, in Eppendorf tubes, in 100 % DMSO. Each new inhibitor stock (4 μL) was diluted in assay buffer (1 in 75) within a new Eppendorf set with assay buffer (20 mM HEPES pH 7.5 and 50 m M NaCl), ensuring the percentage of DMSO was consistent throughout the series. To each well of interest, Inhibitor in assay buffer (75 μL) was added, and CoREST complex (500 nM, 10 µL) was added thereafter. The plate was placed on a rocker and pre -incubated for 30 mins. To each well, premixed Amplex® UltraRed and HRP (10 µL) was added before H3K4Me 2 peptide substrate in assay buffer solution (300 μM, 5 µL) was added to the wall of the plate. The plate was covered in foil and spun down for one minute before being placed in the plate reader. The final percentage concentration of DMSO in […]

For the compound `C/C(=N\NC(=O)c1cccc(S(=O)(=O)N2CCOCC2)c1)c1cc(Cl)ccc1O` [SP2509, reference compound], the “cytotoxic effects in cells” value with HCT116 cells is listed as “significant cytotoxic effects”. For the same compound, the IC50 – broadly, the concentration at which inhibition is half-maximal – in series [1] (LSD1 enzymatic activity, complex 50 nM, HRP assay, SP2509 value is mean of three sets, read-out: LSD1-HDAC1-CoREST IC50) was 54.2 nM; in series [1] (per parallel set, each set with SP2509 as reference standard, read-out: IC50 from dose response curves (Figure S1)), 52 nM and 56 nM and 55 nM.
